Results reported in patent publication US11225653B2, “Methods and compounds for reducing threonyl-tRNA synthetase activity” (University of Vermont and State Agricultural College, priority 2012, dated 2022).
“Also recorded” adds a separate entry of the source.

Tests used:
human TARS [1] = target: T1, human TARS (Homo sapiens, UniProt P26639); experiment: Ap4A formation assay; format: biochemical; conditions: FIGS. 17C and 17D, 10 μM compound
T1 construct: His6 (N); made in house; host or cells: E. coli Rosetta 2(DE3)pLysS, plasmid pET28a hctThrRS
T1 sequence (P26639 1-723): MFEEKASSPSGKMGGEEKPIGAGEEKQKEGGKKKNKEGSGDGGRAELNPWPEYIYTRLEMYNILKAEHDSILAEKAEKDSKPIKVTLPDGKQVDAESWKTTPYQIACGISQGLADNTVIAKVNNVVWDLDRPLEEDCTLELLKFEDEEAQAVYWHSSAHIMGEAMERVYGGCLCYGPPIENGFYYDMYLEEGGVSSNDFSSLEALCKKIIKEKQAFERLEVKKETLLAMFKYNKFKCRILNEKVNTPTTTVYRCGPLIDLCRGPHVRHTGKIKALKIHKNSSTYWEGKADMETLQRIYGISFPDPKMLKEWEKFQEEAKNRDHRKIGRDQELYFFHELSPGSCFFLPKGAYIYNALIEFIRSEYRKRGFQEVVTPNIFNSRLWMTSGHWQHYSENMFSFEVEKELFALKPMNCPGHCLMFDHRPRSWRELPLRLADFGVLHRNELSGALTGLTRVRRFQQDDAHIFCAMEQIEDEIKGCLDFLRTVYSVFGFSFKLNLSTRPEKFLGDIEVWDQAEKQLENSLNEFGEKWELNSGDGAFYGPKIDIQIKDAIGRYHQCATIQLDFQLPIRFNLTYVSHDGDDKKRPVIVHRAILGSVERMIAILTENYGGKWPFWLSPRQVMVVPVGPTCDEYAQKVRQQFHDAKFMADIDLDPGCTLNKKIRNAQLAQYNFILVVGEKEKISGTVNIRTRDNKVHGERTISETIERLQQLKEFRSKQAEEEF
Experimental: TARS purification and active site determination were performed as previously described (Williams, Mirando et al., 2013). TARS non-canonical catalytic activities were characterized using modifications from published methods (Guo, Chong et al. 2009). For Ap4A reactions 5 μM of wildtype TARS or R442A TARS were incubated for 10 minutes on ice with 2 mM threonine, and 10 μM BC194 or borrelidin as indicated in FIG. 17C. Reactions were initiated using 2 mM ATP with trace amounts of [α-^32P]-ATP as label. At specific time points aliquots were quenched in 3 volumes of 0.1% SDS, 400 mM sodium acetate and resolved on polyethyleneimine-cellulose plates by thin-layer chromatography (TLC) in 3 M NH4 (SO4)2 and 2% EDTA. Radioactive counts were identified by phosphorimaging and products quantified as fractions of total ATP added. The quantitation of product was normalized to take into account the fact that each Ap4A molecule has two equivalents of radioactive phosphorus.

human TARS [2] = target: T1, human TARS; experiment: GTPase assay (GTP hydrolysis); format: biochemical; conditions: 10 μM BC194 or 10 μM borrelidin
[3] = test system: chorioallantoic membrane (CAM); experiment: Chick chorioallantoic membrane (CAM) assay; format: in vivo, chicken
Experimental: Chick Chorioallantoic Membrane Assay-Fertilized chicken eggs (Sunrise Farms, Catskill, N.Y.) day 1-2 post-laying were incubated in a humidified incubator at 37° C. for 72 h. Cleaned eggs were cracked and plated in a sterile 10 cm^2 tissue culture-treated dish and incubated at 37° C. for another 7 days. On developmental day 10, 1 mm^3 sterile gelatin sponge pieces (Surgifoam®; Johnson & Johnson Wound Management, Somerville, N.J.) were placed within the outer one-third of the membrane between large vessels. 40 μg/ml human bFGF and 2 μg/mL human VEGF were used as pro-angiogenic control compounds; 100 μg/mL retinoic acid (Sigma-Aldrich, St. Louis, Mo.) diluted in phosphate-buffered saline (PBS) was used as an angiostatic control. All compounds were applied in 10 μl to the CAM every 24 h for 72 h. Images were taken using a Leica MZ6 stereomicroscope every 24 h. Compounds were scored according to a modified version of Intensity Scoring as previously described (Ribatti, Nico et al. 2006). Briefly, each experimental condition was given a blinded score from 0-5 based on the change in the extent of vessel convergence and formation in proximity to the sponge from day 0 to day 3. Total score is averaged individual experimental condition scores from at least 15 replicates.
Fertilized chicken embryos were cultured ex-ova and, starting at developmental day 10, agents were applied daily to gelfoam sponges on the CAM. Images were recorded daily over 72 h and scored blindly according to a modified version Intensity Scoring as previously described (Ribatti, Nico et al. 2006). Additional details regarding methods are provided in the Methods and Materials section of Example 1.

human LARS = target: T2, human LARS (Homo sapiens, UniProt Q9P2J5); experiment: LARS steady state ATPase activity; format: biochemical; conditions: 1 μM human LARS
T2 construct: His6 (N); made in house; host or cells: E. coli, plasmid pPROEX hTb-LARS
T2 sequence (Q9P2J5 whole entry): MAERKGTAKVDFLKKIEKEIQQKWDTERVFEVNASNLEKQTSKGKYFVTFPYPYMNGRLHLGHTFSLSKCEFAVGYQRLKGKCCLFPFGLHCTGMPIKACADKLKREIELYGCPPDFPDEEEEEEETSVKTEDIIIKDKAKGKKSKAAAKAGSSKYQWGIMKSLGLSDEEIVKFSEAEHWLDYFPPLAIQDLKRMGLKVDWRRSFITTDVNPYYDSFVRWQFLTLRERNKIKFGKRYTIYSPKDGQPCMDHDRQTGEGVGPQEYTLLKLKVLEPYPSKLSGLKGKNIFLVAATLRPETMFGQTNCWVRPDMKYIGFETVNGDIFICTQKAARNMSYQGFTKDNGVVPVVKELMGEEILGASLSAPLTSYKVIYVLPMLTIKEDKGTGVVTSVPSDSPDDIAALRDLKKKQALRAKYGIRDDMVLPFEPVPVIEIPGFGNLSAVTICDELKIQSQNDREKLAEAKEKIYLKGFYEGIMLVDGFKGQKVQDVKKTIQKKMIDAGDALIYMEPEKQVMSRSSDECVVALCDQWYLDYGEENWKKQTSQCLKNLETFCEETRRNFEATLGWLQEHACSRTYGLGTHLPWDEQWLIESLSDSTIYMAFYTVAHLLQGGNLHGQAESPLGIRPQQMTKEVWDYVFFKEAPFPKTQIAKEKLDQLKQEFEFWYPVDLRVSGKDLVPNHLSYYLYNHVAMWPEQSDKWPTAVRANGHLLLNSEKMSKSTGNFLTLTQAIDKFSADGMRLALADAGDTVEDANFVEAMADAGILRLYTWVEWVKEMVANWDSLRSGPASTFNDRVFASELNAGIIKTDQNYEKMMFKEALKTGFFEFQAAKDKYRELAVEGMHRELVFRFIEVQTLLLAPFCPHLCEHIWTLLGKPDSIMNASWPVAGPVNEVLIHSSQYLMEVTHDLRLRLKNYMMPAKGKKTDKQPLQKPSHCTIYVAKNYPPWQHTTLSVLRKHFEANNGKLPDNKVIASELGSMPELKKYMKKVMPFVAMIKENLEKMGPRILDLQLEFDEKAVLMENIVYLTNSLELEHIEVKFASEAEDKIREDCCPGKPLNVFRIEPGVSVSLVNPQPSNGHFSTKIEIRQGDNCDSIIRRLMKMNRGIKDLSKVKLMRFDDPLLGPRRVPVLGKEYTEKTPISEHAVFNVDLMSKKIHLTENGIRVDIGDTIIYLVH
Experimental: LARS steady state ATPase activity was determined using the same procedure as for TARS aminoacylation with the following modifications. […] ATP (PerkinElmer, Waltham, Mass.) was added. Reactions were incubated for 3 minutes at 37° C. and initiated with the addition of 1 μM human LARS. At various time points 5 μl aliquots were quenched in 45 μl of 500 mM sodium acetate and 0.1% sodium dodecyl sulfate. For each sample, 1 μl was spotted onto a CCM cellulose PEI F plates (EMD) and resolved via thin-layer chromatography in 0.75 M potassium phosphate buffer mobile phase.

[4] = test system: Human umbilical vein endothelial cells (HUVECs); experiment: In vitro endothelial tube formation assay; format: cell-based; conditions: HUVECs on Matrigel, range of BC194 concentrations
Experimental: In vitro Tube Formation Assay-Tube formation assays were performed as described (Arnaoutova and Kleinman 2010; Cassavaugh, Hale et al. 2011). Human Umbilical Vein Endothelial Cells (HUVECs) were seeded in 48-well plates (1.5×10^4 cells/well) coated with 100 μl of Matrigel™ Basement Membrane Matrix Growth Factor Reduced (BD Biosciences, San Jose, Calif.) and incubated in Clonetics® EGM®-2 complete media (Lonza, Annandale, N.J.) or EGM®-2 with reduced serum (0.2% fetal bovine serum). Cells were incubated at 37° C. for 6 h then fixed in 10% formalin. Fixed samples were imaged by phase-contrast microscopy or stained with Oregon Green 488 Phalloidin (Molecular Probes, Eugene, Oreg.) then imaged with fluorescence microscopy (2× objective). Number of tubes and tube lengths (in pixels) were quantified using the Simple Neurite Tracer (Longair, Baker et al. 2011) plug-in on ImageJ software (NIH). Statistical analysis of one-way ANOVA was performed with GraphPad Software. Multiple comparisons were performed using the Tukey Test.

HUVECs = experiment: Endothelial cell proliferation assay (alamarBlue); format: cell-based, human; conditions: 10 nM BC194, 50 ng/ml VEGF, low serum media
Experimental: Endothelial Cell Proliferation Assay—The […] alamarBlue® (Invitrogen) reagent was used to assess cell proliferation (Ahmed, Gogal et al. 1994). HUVECs were seeded in a 96-well dish (1×10^3 cells/well) and grown for 48 h in EGM®-2 media. Cells were incubated in 0.2% FBS EGM®-2 media or EGM®-2 complete media as indicated; VEGF (50 ng/ml) and media alone served as controls. After 48 h, 72 h, or 96 h in culture, 10 μl/well premixed alamarBlue® (Invitrogen) was added and after 3 h at 37° C. the amount of reduced alamarBlue® was quantified by fluorescence (excitation at 530 nm, emission at 590 nm) on a microplate reader (Synergy™ HT, BioTek, Winooski, Vt.).

HUVEC = experiment: Transwell migration assay; format: cell-based, human; conditions: 10 nM BC194 with 50 ng/ml VEGF or 100 nM TARS, 4 h
Experimental: Transwell Migration Assay—Migration was assessed using transwell inserts (Svensson, Kucharzewska et al. 2011). HUVEC cultures were serum-depleted overnight in Clonetics® EGM®-2 modified with 0.2% fetal bovine serum then 5×10^4 cells were plated in 90% EBM®-2, 10% EGM®-2 in the upper chamber of 0.2% gelatin-coated 24-well 8 μm Transwell® inserts (Corning, Tewksbury, Mass.) with 90% EBM®-2, 10% EGM®-2 media plus 50 ng/ml VEGF, 1-100 nM TARS protein, or 10 nM BC194 in the lower chamber. Cultures were incubated for 4 h, fixed in 10% formalin, and stained with 10 μg/ml DAPI solution (Roche) following removal of cells from the top layer of the chamber with a cotton swab. Migrated cells were imaged using a 4× objective on the Olympus 1×70 Inverted microscope (Olympus). DAPI-stained nuclei were counted using ImageJ software.

| Compound | inhibition of Ap4A and Ap4G synthesis (in words) (human TARS [1]) | change of TARS GTPase activity upon treatment (human TARS [2]) | vessel formation / vascularization on the CAM after applied protein ([3]; purified protein applied daily to sponge, scored over 72 h) | enzyme activity as conversion of 32P-ATP to AMP (human LARS) | tube (branch) length [4] | effect on VEGF proliferative response (HUVECs) | inhibition of vessel formation on the CAM ([3]; daily application to gel sponge, basal, bFGF (40 μg/ml) or VEGF (2 μg/ml) stimulated) | effect on VEGF- and TARS-mediated migration (HUVEC) |
| --- | --- | --- | --- | --- | --- | --- | --- | --- |
| C[C@@H]1C[C@H](C)C[C@H](C)[C@@H](O)CC(=O)O[C@H]([C@@H]2CCC[C@H]2C(=O)O)C/C=C/C=C(/C#N)[C@H](O)[C@@H](C)C1 [borrelidin, reference compound] | at least partially inhibited | no observable change | – | – | – | – | – | – |
| LARS: N-terminal His6-tagged human leucyl tRNA synthetase | – | – | no observable effect on vascularization; also recorded: has no effect on angiogenesis | exhibits enzyme activity | – | – | – | – |
| C[C@@H]1C[C@H](C)C[C@H](C)[C@@H](O)CC(=O)O[C@H]([C@@H]2CC[C@H]2C(=O)O)C/C=C/C=C(/C#N)[C@H](O)[C@@H](C)C1 [BC194, reference compound] | at least partially inhibited | no observable change | – | – | does not affect endothelial tube branch length | did not significantly reduce the VEGF proliferative response | inhibited vessel formation at both the basal level and after stimulation with either bFGF or VEGF | reduced both the migration effects of VEGF and TARS |
